Assay [1] deals with HCV genotype 1b replicon cell line. Kind of assay: HCV Genotype 1b Replicon Assay. It counts as cell-based. As to conditions: Hepatitis C virus, Huh-7, Huh7 cell background, luciferase activity readout, 48 hours. An excerpt:
Assay 1: HCV Genotype 1b Replicon Assay
The HCV genotype 1b replicon cell line was obtained from Apath LLC (Brooklyn, N.Y.) (APC144; Huh7 cell background). This subgenomic replicon contains the N-terminus of the HCV core protein fused to the neomycin-resistance selectable marker. The EMCV IRES lies downstream and drives expression of humanized Renilla luciferase fused to the non-structural proteins NS3-NS5B. This cell line was used to determine compound potency using the luciferase activity readout as a measurement of compound inhibition of replicon levels.
(§1) Cells were grown at 37° C. in a 5% CO2 humidified incubator in DMEM (Invitrogen) with 10% FBS (HyClone), 1×NEAA (Invitrogen), 1× Pen-Strep (Invitrogen), and 500 μg/mL G418 (Invitrogen). On day 1 of the assay, cells were plated at 10,000 cells/well in white 96-well tissue culture plates (Costar) in 200 μL media lacking G418. […] Compounds were initially diluted in DMSO and then diluted another 200× in media to bring the final DMSO concentration down to 0.5%. The cells were incubated with test compounds for 48 hours. At the end of the incubation period, media and compound were removed from the plates and the luciferase activity was determined using Promega Renilla-Glo reagents.
To analyze the data, the luciferase activity was plotted vs. the compound concentration, and EC50 values were determined from a 4-parameter robust fit model with the GraphPad Prism software package (GraphPad Software, Inc., San Diego, Calif.). Results are expressed as the negative decadic logarithm of the EC50 value, pEC50.

For assay [2], the system named is HCV genotype 1a replicon cell line. Kind of assay: HCV Genotype 1a Replicon Assay. It counts as cell-based. The settings on record: Hepatitis C virus, Huh7.5 cell background, NS3-specific protease activity in lysates, 48 or 72 hours, read-out: pEC50 Genotype 1a (converted). Here is the method:
Assay 2: HCV Genotype 1a Replicon Assay
The HCV genotype 1a replicon cell line was obtained from Apath LLC (APC89; Huh7.5 cell background). This subgenomic replicon contains the N-terminus of the HCV core protein fused to the neomycin-resistance selectable marker. The EMCV IRES lies downstream and drives expression of the non-structural proteins NS3-NS5B. Compound potencies were determined using the NS3-specific protease activity in lysates as a measurement of compound inhibition of replicon levels.
as §1, with “850” for “500”, “15,000” for “10,000”, “black” for “white”, “48 or 72” for “48”, “plates.” for “plates and the luciferase activity was determined using Promega Renilla-Glo reagents.”
To determine the NS3-specific protease activity in lysates, the cells were lysed at room temperature in 50 μL/well of 50 mM Hepes pH 7.5, 150 mM NaCl, 15% Glycerol, 0.15% Triton X-100, 10 mM DTT for 20 minutes with shaking. 50 μL of an NS3/4a protease-specific FRET substrate (Anaspec RET S1 Cat#22991) was then added to the wells at a final concentration of 15 μM. The plates were incubated at 37° C. for 20 minutes, which corresponds to a timepoint at which the protease activity is still in the linear phase. Protease activity was determined by measuring fluorescence (Excitation: 340 nm; Emission: 509 nm).
To analyze the data, the fluorescence was plotted vs. the compound concentration, and EC50 values were determined from a 4-parameter robust fit model using GraphPad Prism software.

In the case of `COC(=O)N[C@H](C(=O)N1C[Si](C)(C)C[C@H]1c1nc(-c2ccc(-c3ccc(NC(=O)c4ccc(N5CCN(C(=O)C(C)(C)C)C[C@H]5C)nc4)cc3OC(F)(F)F)cc2)c[nH]1)C(C)C` [Example 7, [(S)-1-((R)-5-{4-[4′-({6-[(R)-4-(2,2-dimethyl-propionyl)-2-methyl-piperazin-1-yl]-pyridine-3-carbonyl}-amino)-2′-trifluoromethoxy-biphenyl-4-yl]-1H-imidazol-2-yl}-3,3-dimethyl-[1,3]azasilolidine-1-carbonyl)-2-methyl-propyl]-carbamic acid methyl ester], the EC50 is under 0.1 nM in assay [1] and 0.1 to 1 nM in assay [2]. Regarding `COC(=O)N[C@H](C(=O)N1C[C@@H](C)C[C@H]1c1nc2c(ccc3cc(-c4cc(Cl)c(NC(=O)c5ccc(N6CCN(C(=O)[C@H]7CC7(C)C)C[C@H]6C)nc5)cc4OC(F)(F)F)ccc32)[nH]1)C(C)C` [Example 10, [(S)-1-((2S,4S)-2-{7-[5-Chloro-4-({6-[(R)-4-((S)-2,2-dimethylcyclopropanecarbonyl)-2-methyl-piperazin-1-yl]-pyridine-3-carbonyl}-amino)-2-trifluoromethoxy-phenyl]-3H-naphtho[1,2-d]imidazol-2-yl}-4-methyl-pyrrolidine-1-carbonyl)-2-methyl-propyl]-carbamic acid methyl ester], the EC50 in assay [1] and in assay [2] was under 0.1 nM each time. As for `COC(=O)N[C@H](C(=O)N1C[C@@H](C)C[C@H]1c1nc2c(ccc3cc(-c4ccc(C(=O)Nc5ccc(N6CCN(C(=O)C(C)(C)C)C[C@H]6C)nc5)cc4OC(F)(F)F)ccc32)[nH]1)C(C)C` [Example 13, ((S)-1-{(2S,4S)-2-[7-(4-{6-[(R)-4-(2,2-Dimethyl-propionyl)-2-methyl-piperazin-1-yl]-pyridin-3-ylcarbamoyl}-2-trifluoromethoxy-phenyl)-3H-naphth[1,2-d]imidazol-2-yl]-4-methyl-pyrrolidine-1-carbonyl}-2-methyl-propyl)-carbamic acid methyl ester], the EC50 in assay [1] and in assay [2] was under 0.1 nM throughout. As for `COC(=O)N[C@H](C(=O)N1C[C@@H](C)C[C@H]1c1nc2c(ccc3cc(-c4cc(Cl)c(NC(=O)c5ccc(N6CCN(C(=O)C(C)(C)CO)C[C@H]6C)nc5)cc4OC(F)(F)F)ccc32)[nH]1)C1CCOCC1` [Example 15, [(S)-2-((2S,4S)-2-{7-[4-({6-[(R)-4-(3-Hydroxy-2,2-dimethyl-propionyl)-2-methyl-piperazin-1-yl]-pyridine-3-carbonyl}-amino)-5-chloro-2-trifluoromethoxy-phenyl]-3H-naphtho[1,2-d]imidazol-2-yl}-4-methyl-pyrrolidin-1-yl)-2-oxo-1-(tetrahydropyran-4-yl)-ethyl]-carbamic acid methyl ester], the EC50 in assay [1] and in assay [2] was under 0.1 nM each time. As for `COC(=O)N[C@H](C(=O)N1C[C@@H](C)C[C@H]1c1nc2c(ccc3cc(-c4cc(Cl)c(NC(=O)c5ccc(N6CCN(C(=O)C(C)(C)C)C[C@H]6C)nc5)cc4OC(F)(F)F)ccc32)[nH]1)C(C)C` [Example 8, [(S)-1-((2S,4S)-2-{7-[5-Chloro-4-({6-[(R)-4-(2,2-dimethyl-propionyl)-2-methyl-piperazin-1-yl]-pyridine-3-carbonyl}-amino)-2-trifluoromethoxy-phenyl]-3H-naphtho[1,2-d]imidazol-2-yl}-4-methyl-pyrrolidine-1-carbonyl)-2-methyl-propyl]-carbamic acid methyl ester], the EC50 in assay [1] and in assay [2] was under 0.1 nM in each case.

In the case of `COC(=O)N[C@H](C(=O)N1C[C@@H](C)C[C@H]1c1nc2c(ccc3cc(-c4cc(Cl)c(NC(=O)c5ccc(N6CCN(C(=O)C7CC7)C[C@H]6C)nc5)cc4OC(F)(F)F)ccc32)[nH]1)C(C)C` [Example 9, ((S)-1-{(2S,4S)-2-[7-(5-Chloro-4-{[6-((R)-4-cyclopropanecarbonyl-2-methyl-piperazin-1-yl)-pyridine-3-carbonyl]-amino}-2-trifluoromethoxy-phenyl)-3H-naphtho[1,2-d]imidazol-2-yl]-4-methyl-pyrrolidine-1-carbonyl}-2-methyl-propyl)-carbamic acid methyl ester], the EC50 in assay [1] and in assay [2] was under 0.1 nM throughout. With `COC(=O)N[C@H](C(=O)N1C[C@@H](C)C[C@H]1c1nc2c(ccc3cc(-c4cc(Cl)c(NC(=O)c5ccc(N6CCN(C(=O)C(C)(C)C)C[C@H]6C)nc5)cc4OC(F)(F)F)ccc32)[nH]1)C1CCOCC1` [Example 14, [(S)-2-((2S,4S)-2-{7-[4-({6-[(R)-4-(2,2-Dimethyl-propionyl)-2-methyl-piperazin-1-yl]-pyridine-3-carbonyl}-amino)-5-chloro-2-trifluoromethoxy-phenyl]-3H-naphtho[1,2-d]imidazol-2-yl}-4-methyl-pyrrolidin-1-yl)-2-oxo-1-(tetrahydropyran-4-yl)-ethyl]-carbamic acid methyl ester], the EC50 in assay [1] and in assay [2] was under 0.1 nM each time. Take `COC(=O)N[C@H](C(=O)N1CC(C2CC2)=C[C@H]1c1nc(-c2ccc(-c3cc(Cl)c(NC(=O)c4ccc(N5CCN(C(=O)[C@H]6CC6(C)C)C[C@H]5C)nc4)cc3OC(F)(F)F)cc2)c[nH]1)C(C)C` [Example 4, ((S)-1-{(S)-2-[4-(5′-Chloro-4′-{[6-((R)-4-(S)-2,2-dimethylcyclopropanecarbonyl-2-methyl-piperazin-1-yl)-pyridine-3-carbonyl]-amino}-2′-trifluoromethoxy-biphenyl-4-yl)-1H-imidazol-2-yl]-4-cyclopropyl-2,5-dihydro-pyrrole-1-carbonyl}-2-methyl-propyl)-carbamic acid methyl ester]: the EC50 in assay [1] and in assay [2] was under 0.1 nM throughout. As for `COC(=O)N[C@H](C(=O)N1C[C@@H](C)C[C@H]1c1nc2c(ccc3cc(-c4cc(F)c(NC(=O)c5ccc(N6CCN(C(=O)C(C)(C)C)C[C@H]6C)nc5)cc4OC(F)(F)F)ccc32)[nH]1)C1CCOCC1` [Example 5-2], the EC50 in assay [1] and in assay [2] was under 0.1 nM each time. For `COC(=O)N[C@H](C(=O)N1[C@@H]2C[C@@H]2CC[C@H]1c1nc(-c2ccc(-c3cc(Cl)c(NC(=O)c4ccc(N5CCN(C(=O)C(C)(C)C)C[C@H]5C)nc4)cc3OC(F)(F)F)cc2)c[nH]1)C(C)C` [Example 5-10], the EC50 in assay [1] and in assay [2] was under 0.1 nM each time. Consider `COC(=O)N[C@H](C(=O)N1CC(C)=C[C@H]1c1nc(-c2ccc(-c3ccc(C(=O)Nc4ccc(N5CC(C)N(C(=O)C6CC6)C[C@H]5C)nc4)cc3OC(F)(F)F)cc2)c[nH]1)C(C)C` (stereo partly shown) [Example 2-1], for which, in assay [2], the EC50 is 0.1 to 1 nM.

Take `COC(=O)N[C@H](C(=O)N1C[C@H]2[C@@H]([C@H]1c1nc(-c3ccc(-c4cc(Cl)c(NC(=O)c5ccc(N6CCN(C(=O)C(C)(C)C)C[C@H]6C)nc5)cc4OC(F)(F)F)cc3)c[nH]1)C2(C)C)C1CCOCC1` [Example 5-12]: in assay [2], the EC50 was 0.1 to 1 nM. On the same count and under the same terms, with `COC(=O)N[C@H](C(=O)N1CC(C)=C[C@H]1c1nc(-c2ccc(-c3ccc(C(=O)Nc4ccc(N5CC(C)N(C(=O)CNC(C)=O)C[C@H]5C)nc4)cc3OC(F)(F)F)cc2)c[nH]1)C(C)C` (stereo partly shown) [Example 2-5] the figure was 0.1 to 1 nM; with `COC(=O)N[C@H](C(=O)N1CC(C)=C[C@H]1c1nc(-c2ccc(-c3ccc(C(=O)Nc4ccc(N5CC(C)N(C(=O)C6(O)CC6(C)C)C[C@H]5C)nc4)cc3OC(F)(F)F)cc2)c[nH]1)C(C)C` (stereo partly shown) [Example 2-6], 0.1 to 1 nM. Regarding `COC(=O)N[C@H](C(=O)N1[C@@H]2C[C@@H]2CC[C@H]1c1nc(-c2ccc(-c3cc(Cl)c(NC(=O)c4ccc(N5CCN(C(=O)C(C)(C)CO)C[C@H]5C)nc4)cc3OC(F)(F)F)cc2)c[nH]1)C(C)C` [Example 5-9], in assay [2], the EC50 was under 0.1 nM.

The record behind these values is US9365549B2, “Hepatitis C virus inhibitors” (THERAVANCE BIOPHARMA R&D IP, LLC, priority 2012, dated 2016).
